How the values were obtained:
PIK3CA (human) [1] = target: PIK3CA (human) (UniProt P42336); assay: Assessment of PIK3CA Kinase Activity in NZOV9 Cells
PIK3CA (human) [2] = target: PIK3CA (human) (UniProt P42336); assay: Assessment of PIK3CA Kinase Activity in NZB5 Cells

Chain of PIK3CA (human) (P42336 whole entry, looked up): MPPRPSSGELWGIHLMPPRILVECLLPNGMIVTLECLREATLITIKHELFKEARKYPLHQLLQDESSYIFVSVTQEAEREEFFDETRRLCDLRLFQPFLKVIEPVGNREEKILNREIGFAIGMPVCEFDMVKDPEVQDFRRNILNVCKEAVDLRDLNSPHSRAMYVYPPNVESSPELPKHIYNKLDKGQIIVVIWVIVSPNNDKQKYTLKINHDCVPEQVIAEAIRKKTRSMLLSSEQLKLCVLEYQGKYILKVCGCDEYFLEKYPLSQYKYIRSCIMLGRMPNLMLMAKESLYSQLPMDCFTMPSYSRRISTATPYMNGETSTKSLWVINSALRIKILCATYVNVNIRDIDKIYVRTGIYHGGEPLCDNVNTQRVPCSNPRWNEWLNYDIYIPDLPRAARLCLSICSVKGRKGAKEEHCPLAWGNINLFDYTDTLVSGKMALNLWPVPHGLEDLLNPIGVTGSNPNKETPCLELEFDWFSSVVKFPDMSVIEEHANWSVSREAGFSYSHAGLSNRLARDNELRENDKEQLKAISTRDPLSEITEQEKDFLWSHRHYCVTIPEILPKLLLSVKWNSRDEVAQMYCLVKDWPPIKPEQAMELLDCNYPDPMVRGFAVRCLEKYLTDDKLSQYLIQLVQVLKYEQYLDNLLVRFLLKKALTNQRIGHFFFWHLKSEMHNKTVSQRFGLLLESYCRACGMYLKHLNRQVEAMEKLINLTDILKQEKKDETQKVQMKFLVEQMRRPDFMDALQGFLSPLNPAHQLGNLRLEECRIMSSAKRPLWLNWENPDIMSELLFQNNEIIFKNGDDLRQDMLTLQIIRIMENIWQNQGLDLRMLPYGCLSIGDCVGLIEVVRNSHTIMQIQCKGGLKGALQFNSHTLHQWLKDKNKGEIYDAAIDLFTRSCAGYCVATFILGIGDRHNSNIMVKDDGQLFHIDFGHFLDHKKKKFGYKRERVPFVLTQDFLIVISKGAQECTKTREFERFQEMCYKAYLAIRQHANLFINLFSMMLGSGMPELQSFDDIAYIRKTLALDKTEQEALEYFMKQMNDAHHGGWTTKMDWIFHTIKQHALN

Row | SMILES | IC50 (PIK3CA (human) [1]) [µM] | IC50 (PIK3CA (human) [2]) [µM]
1 | Cc1cc([N+](=O)[O-])ccc1S(=O)(=O)N(C)N=Cc1cnn2ccc(C#N)cc12 | > 20 | > 20
2 | CN(C)c1ccc([N+](=O)[O-])cc1S(=O)(=O)N(C)N=Cc1cnn2ccc(C#N)cc12 | 0.1 | –
3 | CC(=O)Nc1ccc(C)c(S(=O)(=O)N(C)N=Cc2cnn3ccc(C#N)cc23)c1 | > 20 | > 20
4 | Cc1ccc([N+](=O)[O-])cc1C(=O)N(C)N=Cc1cnn2ccc(C#N)cc12 | > 20 | > 20

The remaining lines, values ahead:

Row | IC50 (PIK3CA (human) [1]) [µM] | IC50 (PIK3CA (human) [2]) [µM] | SMILES
5 | – | > 20 | Cc1ccc(F)cc1S(=O)(=O)N(C)N=Cc1cnn2ccc(C#N)cc12
6 | > 20 | > 20 | Cc1c([N+](=O)[O-])cccc1S(=O)(=O)N(C)N=Cc1cnn2ccc(C#N)cc12
7 | > 20 | > 20 | Cc1ccc(C(=O)O)cc1S(=O)(=O)N(C)N=Cc1cnn2ccc(C#N)cc12
8 | – | > 20 | Cc1ccccc1S(=O)(=O)N(C)N=Cc1cnn2ccc(C#N)cc12

Reference: the Kinase Knowledgebase extract (Sharma et al. 2016)
